# Measured values taken from the supplement of paper PMC10307832.
# Tests used:
# Assay in all cases: relative viability (nuclei count vs DMSO), 5 days (fraction); higher = more cells survive
# XMD13-2 + OSI-027 = compound: C1CC1C(=O)NC2=NNC3=C2C=CC(=C3)C4=CC(=CC=C4)C(=O)NC5CC5 [XMD13-2] + COc1cccc2cc(-c3nc([C@H]4CC[C@H](C(=O)O)CC4)n4ncnc(N)c34)[nH]c12 [OSI-027] (partner 0.5 µM)
# How it was run: (§1)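 Medians of duplicate plates are given as relative viability. That measure is the nuclei count in treated wells divided by the count in vehicle wells. Counts were taken on 4× images of lung cancer cell lines in 1536-well plates, 5 days after pin-tool dosing the day after seeding with one drug alone or a fixed anchor-drug dose plus five library-drug doses (not always all listed) in √10 steps.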
# ALW-II-49-7 + Phenformin = compound: Cc1ccc(C(=O)Nc2cccc(C(F)(F)F)c2)cc1Nc1cncc(C(N)=O)c1 [ALW-II-49-7] + N=C(N)NC(=N)NCCc1ccccc1 [Phenformin] (partner 250 µM)
# How it was run: as §1
# XMD13-2 + Navitoclax = compound: C1CC1C(=O)NC2=NNC3=C2C=CC(=C3)C4=CC(=CC=C4)C(=O)NC5CC5 [XMD13-2] + CC1(C)CCC(c2ccc(Cl)cc2)=C(CN2CCN(c3ccc(C(=O)NS(=O)(=O)c4ccc(N[C@H](CCN5CCOCC5)CSc5ccccc5)c(S(=O)(=O)C(F)(F)F)c4)cc3)CC2)C1 [Navitoclax] (partner 0.5 µM)
# How it was run: as §1
# Dasatinib + Tozasertib = compound: Cc1nc(Nc2ncc(C(=O)Nc3c(C)cccc3Cl)s2)cc(N2CCN(CCO)CC2)n1 [Dasatinib] + Cc1cc(Nc2cc(N3CCN(C)CC3)nc(Sc3ccc(NC(=O)C4CC4)cc3)n2)n[nH]1 [Tozasertib] (partner 0.1 µM)
# How it was run: as §1
cell line,measurement,setting,value
UMC-11,relative viability,XMD13-2 + OSI-027; first compound 0.05 µM,0.438
same,relative viability,XMD13-2 + OSI-027; first compound 0.1581 µM,0.404
same,relative viability,XMD13-2 + OSI-027; first compound 0.5 µM,0.474
same,relative viability,XMD13-2 + OSI-027; first compound 1.581 µM,0.453
same,relative viability,XMD13-2 + OSI-027; first compound 5 µM,0.351
same,relative viability,ALW-II-49-7 + Phenformin; first compound 0.08 µM,0.347
same,relative viability,ALW-II-49-7 + Phenformin; first compound 0.253 µM,0.372
same,relative viability,ALW-II-49-7 + Phenformin; first compound 0.8 µM,0.352
same,relative viability,ALW-II-49-7 + Phenformin; first compound 2.53 µM,0.304
same,relative viability,ALW-II-49-7 + Phenformin; first compound 8 µM,0.268
same,relative viability,XMD13-2 + Navitoclax; first compound 0.05 µM,0.347
same,relative viability,XMD13-2 + Navitoclax; first compound 0.1581 µM,0.284
same,relative viability,XMD13-2 + Navitoclax; first compound 0.5 µM,0.309
same,relative viability,XMD13-2 + Navitoclax; first compound 1.581 µM,0.344
same,relative viability,XMD13-2 + Navitoclax; first compound 5 µM,0.265
same,relative viability,Dasatinib + Tozasertib; first compound 0.005 µM,0.196
same,relative viability,Dasatinib + Tozasertib; first compound 0.01581 µM,0.203
same,relative viability,Dasatinib + Tozasertib; first compound 0.05 µM,0.193
same,relative viability,Dasatinib + Tozasertib; first compound 0.1581 µM,0.184
same,relative viability,Dasatinib + Tozasertib; first compound 0.5 µM,0.172
